These results are taken from US20150259371A1, “METHODS AND COMPOUNDS FOR INHIBITING GLYCOSYLTRANSFERASES” (SIMON FRASER UNIVERSITY, priority 2010, published 2015).

For series [1], the system named is incorporation of azido sugar onto proteins in COS-7 cells. As to the kind of experiment: Metabolic feeding and Staudinger ligation with biotin phosphine, streptavidin-HRP blot. Type of series: cell-based, African green monkey. To be noted: 50 μM, 24 h. Here is the method:
(A) Structures of the molecules used or generated during the chemoselective ligation study (X═O or S as indicated, R═H or Ac as indicated). (B) Western blots of COS-7 cell lysates administered specified agents at 50 μM for 24 h; vehicle only (C), Ac-GlcNAz or Ac-5SGlcNAz (41). Cells were harvested and then underwent the Staudinger ligation with biotin phosphine. Blots are probed with (from top to bottom) streptavidin-HRP, anti O-GlcNAc (CTD110.6) antibody and anti-actin antibody. (C) Western blot of immunoprecipitated nup62 from cell lysates following vehicle (C), 50 μM Ac-GlcNAz or Ac-5SGlcNAz (41) treatment for 24 h. Following immunoprecipitation, nup62 was incubated with buffer (−) or with BtGH84 (+) for 2 h to remove O-GlcNAc, and then underwent the Staudinger ligation with biotin phosphine. Blots are probed with streptavidin-HRP. […]
To probe the possibility that 5SGlcNAc is being incorporated onto proteins, we used a metabolic feeding and chemoselective ligation strategy using 2-azidoacetamido-2-deoxy-D-glucopyranose (GlcNAz), which can be assimilated by the HBP to form uridine diphospho-N-azidoacetylglucosamine (UDP-GlcNAz) and then be installed onto proteins as O-GlcNAz^9. […] Accordingly, we evaluated whether 2-azidoacetamido-2-deoxy-5-thio-D-glucopyranose (5SGlcNAz) is incorporated onto proteins to determine whether 5SGlcNAc might be transferred onto proteins in cells. […]

For series [2], the system named is O-GlcNAc levels in COS-7 cells. Briefly: Western blot of O-GlcNAc levels (CTD110.6) in treated COS-7 cells. Type of series: cell-based, African green monkey. The conditions noted are these: 50 μM, 24 h. Here is the method: Cell culture: Cells were grown in an incubator at 37° C. and 5% CO2 atmosphere. Media and serum were purchased from Invitrogen. COS-7 cells were cultured in Dulbecco's modified Eagle's medium (DMEM) with 5% fetal bovine serum (FBS), and were typically 80-100% confluent prior to experimentation. HepG2, SK-N-SH, and EMEG32^−/− cells were cultured in Dulbecco's modified Eagle's medium (DMEM) with 5% fetal bovine serum (FBS), CHO cells in DMEMF-12 with 5% FBS and PC12 cells in DMEM with 5% FBS and 5% horse serum. Prior to experimentation, PC12 cells were plated at a density of 3-4×10^5 cells10 cm plate, which had been pre-treated with 5 μgcm^2 rat tail collagen (BD Biosciences). Cells were differentiated in DMEM containing 1% horse serum, in the presence of 2.5S mouse nerve growth factor (Chemicon) at a final concentration of 25 ng mL^−1, for 4-5 days prior to treatment. Other cell lines were 80-100% confluent prior to treatment. Following treatment with (Ac-)5SGlcNAc, using various conditions, cells were washed gently with PBS, lysed in SDS loading buffer and boiled for 10 minutes. Mouse hybridoma cells (obtained from the Developmental Studies Hybridoma Bank; antibody E7 for (:1-tubulin) were cultured in RPMI40 with 10% FBS. Prior to treatment with Ac-5SGlcNAc, hybridoma cells were cultured for 2 days in RPMI40 with 5% FBS, and during treatment in RPMI40 with no serum. Cells were collected, centrifuged (800 x g, 5 min) and the supernatant removed. Cells were washed with PBS, centrifuged, the pellet resuspended in SDS loading buffer and boiled. The supernatant after centrifugation, which contained the IgG antibody produced by the cells, was used for immunoprecipitation (see below for details).
Westernlectin blots: Samples were run on 10% SDS polyacrylamide gels and transferred onto nitrocellulose membranes (Biorad). Membranes were blocked for 1 h in PBS containing 0.1% Tween-20 (PBS-T) containing 1% (unless otherwise stated) bovine serum albumin (BSA), and probed with the appropriate primary antibody or lectin in 1% BSA in PBS-T overnight at 4° C. Blots were washed for 1 hr with PBS-T, and blocked for a further 30 min with 1% BSA in PBS-T at room temperature. They were then probed with the appropriate horseradish peroxidise (HRP)-conjugated secondary antibodyprobe in 1% BSA in PBS-T at room temperature for 1 h, followed by washing in PBS-T for 1 h. Blots were developed with SuperSignal West Pico Chemiluminescent Substrate (Pierce) and exposed to CL-XPosure film (Pierce). Densitometry was performed using ImageQuant 5.2 (Molecular Dynamics), and fits to the data were made using GRAFIT^41.
Antibodieslectins: O-GlcNAc levels were assessed primarily using CTD110.6 (Covance), but RL2 (Abcam) and HGAC85 (Abcam) were also tested. Actin was probed using JLA20 (Developmental Studies Hybridoma Bank). OGA levels were assessed using a polyclonal anti-OGA antibody which was a kind gift from Dr. Gerald Hart and OGT levels using H-300 (Santa Cruz Biotechnology). nup62 was probed using mAb 414 (Covance). Secondary antibodies employed (HRP-conjugated goat anti-mouse IgM, goat anti-mouse IgG, goat anti-chicken IgY and goat anti-rabbit IgG) were obtained from Santa Cruz Biotechnology. Biotinylated-ConA, PHA-L, SNA and MAA were purchased from EY Laboratories, and biotinylated-GNA from Vector Laboratories. HRP-conjugated streptavidin (Pierce) was used as a probe for the biotinylated lectins.
Analogues (9, 10, 17-41) were tested in COS-7 cells, dosed at a final concentration of 50 μM in DMSO for 24 h. Following treatment, cells were washed with PBS, harvested into SDS-PAGE loading buffer and analyzed by western blot using standard procedures; blots were probed with the anti-O-GlcNAc antibody (CTD 110.6).
(A western blot detects proteins with antibodies after separation by electrophoresis.)

Series [3] has as its system O-GlcNAc levels in mice tissues. Briefly: O-GlcNAc levels in mouse tissues after intraperitoneal dosing. To be noted: 300 mg/kg intraperitoneally, 16 hours. Type of series: in vivo. Here is the method: Ac-5SGlcNAc 9 and the deprotected analogue with the hexyl substituent at the C2 position 28 have been analyzed for effectiveness at decreasing O-GlcNAc levels in mice. Pilot studies were conducted with mice dosed in triplicate with either compound or vehicle alone. Compounds were dosed at 300 mg/kg intraperitoneally using 75% DMSO as vehicle for delivery of 9 and phosphate-buffered saline (PBS) for delivery of 28. Mice were euthanized using a CO2 chamber after 16 hours exposure to either compound, and tissues (liver, lung, heart, kidney, spleen, pancreas, brain, blood, fat and muscle) harvested and flash frozen in liquid nitrogen. Frozen tissues were ground using a pestle and mortar, and resuspended in cell lysis buffer (50 mM NaH2PO4, 150 mM NaCl, 0.1% SDS, 1% NP-40, 0.25% sodium deoxycholate, 1 mM EDTA, 30 mM sodium fluoride, 30 mM β-glycerophosphate, 5 mM sodium pyrophosphate, 1 mM Thiamet-G, protease inhibitor cocktail (Roche)) at a concentration of 100 mg tissue1 mL buffer prior to homogenization. Homogenates were centrifuged at 13,000 rpm for 20 min, the supernatant removed, added to 2×SDS-PAGE loading buffer and boiled for […]. SDS-PAGE and western blots were performed using standard procedures. Blots were probed using anti-O-GlcNAc antibody (CTD110.6, Santa Cruz Biotechnology) and anti-actin antibody for a loading control.

Series [4] deals with EMEG32 heterozygous mouse embryonic fibroblast cells. Briefly: Cell proliferation growth curves over 5 days and western blot, EMEG32 heterozygous fibroblasts. Type of series: cell-based. To be noted: EMEG32 heterozygotes, 50 μM, 5 days. Here is the method:
(A) Cell proliferation curves over the course of 5 days for CHO cells following no (circles), 50 μM Ac-GlcNAc (squares) or 50 μM Ac-5SGlcNAc (triangles) treatment. The error bars indicate the deviation from the mean for triplicate measurements. […] Upper panel, probed with anti-O-GlcNAc antibody (CTD110.6); lower panel, probed with anti-actin antibody. (B) Cell proliferation curves over the course of 5 days for EMEG heterozygous mouse embryonic fibroblast cells following no (circles), 50 μM Ac-GlcNAc (squares) or 50 μM Ac-5SGlcNAc (triangles) treatment. The error bars indicate the deviation from the mean for triplicate measurements. […] Upper panel, probed with anti-O-GlcNAc antibody (CTD110.6); lower panel, probed with anti-actin antibody. (C) Western blots of CHO cell lysates following no (C) or Ac-5SGlcNAc administration at 50 μM for 4 days. Probed with (from top to bottom) anti-Spl antibody, anti O-GlcNAc (CTD110.6) antibody and anti-actin antibody. Full blot of the anti-Sp 1 is shown in panel (d). (D) Western blots of CHO cell lysates following no (C) or Ac-5SGlcNAc administration at 50 μM for 4 days. The full blot probed with anti-Spl antibody is shown. (E) Western blots of COS-7 cell lysates following no (C) or 50 μM Ac-5SGlcNAc treatment for 24 h. Following treatment, the media was replaced with no inhibitor, and cells were harvested at the time points indicated (between 0 and 24 h). Upper panel, probed with anti-O-GlcNAc antibody (CTD110.6); lower panel, probed with anti-actin antibody.
Cellular responses to Ac-5SGlcNAc (9) treatment and consequent decreases in O-GlcNAc levels were evaluated. […] We quantitatively evaluated cell proliferation and established growth curves over the course of 5 days in both CHO and EMEG32 heterozygous mouse embryonic fibroblast cells treated with 50 μM Ac-5SGlcNAc (9), 50 μM Ac-GlcNAc (G), or vehicle (FIGS. 5A-B).

On to `CC(=O)OC[C@H]1O[C@H](OC(C)=O)[C@H](NC(=O)CN=[N+]=[N-])[C@@H](OC(C)=O)[C@@H]1OC(C)=O` [Ac-GlcNAz, 1,3,4,6-tetra-O-acetyl-2-azidoacetamido-2-deoxy-ot-D-glucopyranose, reference compound], for which the “streptavidin signal after Staudinger ligation (accumulation of azido sugar on proteins)” value in series [1] is “Only proteins from cells treated with Ac-GlcNAz revealed any signal”. Further, the “effect on O-GlcNAc levels at single dose” value in series [2] was “only 5SGlcNAz decreased O-GlcNAc levels”.
`CCCCCC(=O)NC1C(O)SC(CO)C(O)C1O` [Compound 28, N-Hexonoyl-a-D-5-thio-glucosamine]: in series [2], the “effect on O-GlcNAc levels at single dose” value is recorded as “decreased O-GlcNAc levels in cells” and the “extent of decrease of O-GlcNAc levels relative to parent compound 9” value is “comparable extent to the parent compound”. Besides, the “O-GlcNAc levels in tissues” value in series [3] was “effective at decreasing O-GlcNAc levels during the 16 hour dosing period in the liver, lung, heart, kidney, spleen, pancreas, fat and muscle”.
On to “2-azidoacetamido-2-deoxy-5-thio-D-glucopyranose [Compound 5SGlcNAz]”, for which the “streptavidin signal after Staudinger ligation (accumulation of azido sugar on proteins)” value in series [1] is reported as “does not accumulate on proteins to any measurable level”.
With `CC(=O)N[C@H]1[C@H](OC(C)=O)O[C@H](COC(C)=O)[C@@H](OC(C)=O)[C@@H]1OC(C)=O` [Ac-GlcNAc, reference compound], in series [4], the growth rate result is given as “indistinguishable but were both lower than vehicle treated cells”.
